Test results from patent US20250339415A1, “DISULFIDE COMPOUNDS AS MEDICAMENTS” (CYTACOAT AB, priority 2021, published 2025).

What was measured:
Type in all cases: cell-based
[1] = tested on: Klebsiella pneumoniae AO15200; assay: Minimum inhibitory concentration (MIC), visible growth
Procedure: (§1) • 1. Using a sterile inoculating loop, transfer bacteria/Candida albicans from frozen stock culture and streak them on a fresh LA plate. • 2. Incubate the plate at 37° C. overnight (o/n) (18-24 h).
(§2) • 1. Prepare bacterial culture by adding 20 ml Mueller Hinton broth (*) to a 250-ml Erlenmeyer flask with sidearm. • 2. Using a sterile inoculating loop, pick approximately 10 colonies from the o/n bacterial culture and transfer bacteria to the flask. • 3. Incubate the E-flask with bacteria on a rotating shaker at 37° C. until OD590=0.40. This OD should equal an approximate bacterial count of 1×10^8 cfu/ml (**) • This is measured using a colorimeter (or spectrophotometer). Set reference and press R (=reference) first, then measure the bacterial culture by pressing T (=test). • 4. At OD590 0.40, serially dilute the bacterial suspension 1:10 000 in Mueller Hinton broth to obtain a bacterial target concentration of 1×10^4 cfu/ml. Determine the initial inoculation by serially diluting 0.1 ml in 0.9 ml blanks of sterile PBS and plating 0.1 ml aliquots to LA plates, preferably. • 5. Different concentrations of the tested compound are prepared in 0.6-0.8 ml of the final dilution of bacterial suspension and placed in 2-ml test tubes. • 6. Incubate test tubes in an orbital shaker incubator at 37° C. for 24 h.
(§3) • 7. Analyze visible growth, i.e. “Foggy” or “Clear”. MIC is being defined as the interval between the highest “Foggy” and the lowest “Clear” concentration of the compound.
(§4) Different concentrations of PDEA (Example 1) in Mueller Hinton medium were prepared. Bacteria were inoculated to a concentration of 20 000 CFU/ml and incubated at 37° C. for 24 hours. Minimum inhibitory concentrations (MICs) were determined by analyzing visible growth, i.e., readouts were “Clear” and “Foggy”.
(§5) Different concentrations of the quaternary ammonium PDEA (Example 2) in Mueller Hinton medium were prepared. Bacteria were inoculated to a concentration of 20 000 CFU/ml and incubated at 37° C. for 24 hours. Minimum inhibitory concentrations (MICs) were determined by analyzing visible growth, i.e., readouts were “Clear” and “Foggy”.
(§6) Different concentrations of this compound in Mueller Hinton medium were prepared. Bacteria were inoculated to a concentration of 20 000 CFU/ml and incubated at 37° C. for 24 hours. Minimum inhibitory concentrations (MICs) were determined by analyzing visible growth, i.e., readouts were “Clear” and “Foggy”.
(§7) Different concentrations of this compound were prepared in Mueller Hinton broth. Bacteria were inoculated to a concentration of 20 000 CFU/ml and incubated at 37° C. for 24 hours. Minimum inhibitory concentrations (MICs) were determined by analyzing visible growth, i.e., readouts were “Clear” and “Foggy”.

[2] = tested on: Enterococcus faecium #11 (KI, Clinical Isolate); assay: as above
Procedure: as §1, §2, §3, §4, §5, §6, §7

[3] = tested on: Pseudomonas aeruginosa PA02; assay: as above
Procedure: as §1, §2, §3, §4, §5, §6, §7

[4] = tested on: Staphylococcus epidermidis Se19 (Clinical Isolate, Jan Ingemar Falk); assay: as above
Procedure: as §1, §2, §3, §4, §5, §6, §7

Escherichia coli CFT073 = assay: as above
Procedure: as §1, §2, §3, §4, §5, §6, §7

[5] = tested on: Staphylococcus aureus B5381; assay: as above
Procedure: as §1, §2, §3, §4, §5, §6, §7

[6] = tested on: Enterococcus faecalis #28 (KI, Clinical Isolate); assay: as above
Procedure: as §1, §2, §3, §4, §5, §6, §7

Candida albicans = assay: Minimum inhibitory concentration (MIC), visible growth, YPD broth
Procedure: as §1, §2, §3
(*) When testing Candida albicans, Yeast extract Peptone Dextrose (YPD) broth is being used.
(**) For Candida albicans it is equal to 1×10^7
Different concentrations of PDEA were also prepared in Yeast extract Peptone Dextrose (YPD) broth. Candida albicans were inoculated to a concentration of 20 000 CFU/ml and incubated at 37° C. for 24 hours. Readouts were “Clear” and “Foggy”.
Different concentrations of the quaternary ammonium PDEA (Example 2) were also prepared in Yeast extract Peptone Dextrose (YPD) broth. Candida albicans were inoculated to a concentration of 20 000 CFU/ml and incubated at 37° C. for 24 hours. Readouts were “Clear” and “Foggy”.
Different concentrations of the Para position-PDEA” is (S)-4-pyridylthio cysteamine were also prepared in Yeast extract Peptone Dextrose (YPD) broth. Candida albicans were inoculated to a concentration of 20 000 CFU/ml and incubated at 37° C. for 24 hours. Readouts were “Clear” and “Foggy”.
Different concentrations of “Carboxylic acid PDEA” is 3-(2-Pyridyldithio)propanoic acid (CAS: 68617-64-1) were also prepared in Yeast extract Peptone Dextrose (YPD) broth. Candida albicans were inoculated to a concentration of 20 000 CFU/ml and incubated at 37° C. for 24 hours. Readouts were “Clear” and “Foggy”.

E. coli = assay: Combination therapy: Gentamycin with PDEA, visible growth; conditions: No PDEA
Procedure: (§8) Different concentrations of Gentamycin in Mueller Hinton were prepared in 3 different concentrations of PDEA. E. coli and S. aureus were inoculated (10^5) and were incubated O/N.
(§9) Readouts were “Clear” and “Foggy”.

S. aureus = assay: as above; conditions: No PDEA
Procedure: as §8, §9

O=C(O)CCSSc1ccccn1 [Example 4, 3-(2-Pyridyldithio)propanoic acid]
250 to 500 µM: MIC ([6]; Enterococcus faecalis, Mueller Hinton, 20 000 CFU/ml, 37° C., 24 hours, read-out: MIC)
1000 to 2000 µM: MIC (Candida albicans; Candida albicans, YPD broth, 20 000 CFU/ml, 37° C., 24 hours, read-out: MIC)
6400 to 12800 µM: MIC ([3]; Pseudomonas aeruginosa, PA02, Mueller Hinton, 20 000 CFU/ml, 37° C., 24 hours, read-out: MIC)
3200 to 6400 µM: MIC ([1]; Klebsiella pneumoniae, AO15200, Mueller Hinton, 20 000 CFU/ml, 37° C., 24 hours, read-out: MIC)
Foggy: visible growth readout ([1]; 0.05 mM) | visible growth readout ([1]; 0.1 mM) | visible growth readout ([1]; 0.25 mM) | visible growth readout ([1]; 0.5 mM) | visible growth readout ([1]; 0.8 mM (second series)) | visible growth readout ([1]; 1 mM) | visible growth readout ([1]; 2 mM) | visible growth readout ([1]; 3.2 mM (second series)) | visible growth readout ([1]; 4 mM) | visible growth readout ([1]; 0.1.6 mM (second series)) | visible growth readout ([2]; 0.05 mM) | visible growth readout ([2]; 0.1 mM) | visible growth readout ([3]; 0.05 mM) | visible growth readout ([3]; 0.1 mM) | visible growth readout ([3]; 0.25 mM) | visible growth readout ([3]; 0.5 mM) | visible growth readout ([3]; 0.8 mM (second series)) | visible growth readout ([3]; 1 mM) | visible growth readout ([3]; 2 mM) | visible growth readout ([3]; 3.2 mM (second series)) | visible growth readout ([3]; 4 mM) | visible growth readout ([3]; 6.4 mM (second series)) | visible growth readout ([3]; 0.1.6 mM (second series)) | visible growth readout ([4]; 0.05 mM) | visible growth readout ([4]; 0.1 mM) | visible growth readout (Escherichia coli CFT073; 0.05 mM) | visible growth readout (Escherichia coli CFT073; 0.1 mM) | visible growth readout (Escherichia coli CFT073; 0.25 mM) | visible growth readout (Escherichia coli CFT073; 0.5 mM) | visible growth readout (Escherichia coli CFT073; 1 mM) | visible growth readout (Escherichia coli CFT073; 2 mM) | visible growth readout ([5]; 0.05 mM) | visible growth readout ([5]; 0.1 mM) | visible growth readout ([5]; 0.25 mM) | visible growth readout ([5]; 0.5 mM) | visible growth readout ([6]; 0.05 mM) | visible growth readout ([6]; 0.1 mM) | visible growth readout ([6]; 0.25 mM) | visible growth readout (Candida albicans; 0.05 mM) | visible growth readout (Candida albicans; 0.1 mM) | visible growth readout (Candida albicans; 0.25 mM) | visible growth readout (Candida albicans; 0.5 mM) | visible growth readout (Candida albicans; 1 mM)
2000 to 4000 µM: MIC (Escherichia coli CFT073; Escherichia coli, CFT073, Mueller Hinton, 20 000 CFU/ml, 37° C., 24 hours, read-out: MIC)
100 to 250 µM: MIC ([2]; Enterococcus faecium, Mueller Hinton, 20 000 CFU/ml, 37° C., 24 hours, read-out: MIC) | MIC ([4]; Staphylococcus epidermidis, Mueller Hinton, 20 000 CFU/ml, 37° C., 24 hours, read-out: MIC)
Clear: visible growth readout ([1]; 6.4 mM (second series)) | visible growth readout ([1]; 12.8 mM (second series)) | visible growth readout ([2]; 0.25 mM) | visible growth readout ([2]; 0.5 mM) | visible growth readout ([2]; 1 mM) | visible growth readout ([2]; 2 mM) | visible growth readout ([2]; 4 mM) | visible growth readout ([3]; 12.8 mM (second series)) | visible growth readout ([4]; 0.25 mM) | visible growth readout ([4]; 0.5 mM) | visible growth readout ([4]; 1 mM) | visible growth readout ([4]; 2 mM) | visible growth readout ([4]; 4 mM) | visible growth readout (Escherichia coli CFT073; 4 mM) | visible growth readout ([5]; 1 mM) | visible growth readout ([5]; 2 mM) | visible growth readout ([5]; 4 mM) | visible growth readout ([6]; 0.5 mM) | visible growth readout ([6]; 1 mM) | visible growth readout ([6]; 2 mM) | visible growth readout ([6]; 4 mM) | visible growth readout (Candida albicans; 2 mM) | visible growth readout (Candida albicans; 4 mM)

Gentamycin
Foggy: Visible growth readout (Clear/Foggy) (E. coli; Gentamycin 0.0156 μg/ml) | Visible growth readout (Clear/Foggy) (E. coli; Gentamycin 0.03125 μg/ml) | Visible growth readout (Clear/Foggy) (E. coli; Gentamycin 0.0625 μg/ml) | Visible growth readout (Clear/Foggy) (E. coli; Gentamycin 0.125 μg/ml) | Visible growth readout (Clear/Foggy) (E. coli; Gentamycin 0.25 μg/ml) | Visible growth readout (Clear/Foggy) (E. coli; Gentamycin 0.5 μg/ml) | Visible growth readout (Clear/Foggy) (S. aureus; Gentamycin 0.0156 μg/ml) | Visible growth readout (Clear/Foggy) (S. aureus; Gentamycin 0.03125 μg/ml) | Visible growth readout (Clear/Foggy) (S. aureus; Gentamycin 0.0625 μg/ml) | Visible growth readout (Clear/Foggy) (S. aureus; Gentamycin 0.125 μg/ml)
Clear: Visible growth readout (Clear/Foggy) (E. coli; Gentamycin 1 μg/ml) | Visible growth readout (Clear/Foggy) (E. coli; Gentamycin 2 μg/ml) | Visible growth readout (Clear/Foggy) (E. coli; Gentamycin 4 μg/ml) | Visible growth readout (Clear/Foggy) (E. coli; Gentamycin 8 μg/ml) | Visible growth readout (Clear/Foggy) (E. coli; Gentamycin 16 μg/ml) | Visible growth readout (Clear/Foggy) (E. coli; Gentamycin 32 μg/ml) | Visible growth readout (Clear/Foggy) (E. coli; Gentamycin 64 μg/ml) | Visible growth readout (Clear/Foggy) (E. coli; Gentamycin 128 μg/ml) | Visible growth readout (Clear/Foggy) (E. coli; Gentamycin 256 μg/ml) | Visible growth readout (Clear/Foggy) (S. aureus; Gentamycin 0.25 μg/ml) | Visible growth readout (Clear/Foggy) (S. aureus; Gentamycin 0.5 μg/ml) | Visible growth readout (Clear/Foggy) (S. aureus; Gentamycin 1 μg/ml) | Visible growth readout (Clear/Foggy) (S. aureus; Gentamycin 2 μg/ml) | Visible growth readout (Clear/Foggy) (S. aureus; Gentamycin 4 μg/ml) | Visible growth readout (Clear/Foggy) (S. aureus; Gentamycin 8 μg/ml) | Visible growth readout (Clear/Foggy) (S. aureus; Gentamycin 16 μg/ml) | Visible growth readout (Clear/Foggy) (S. aureus; Gentamycin 32 μg/ml) | Visible growth readout (Clear/Foggy) (S. aureus; Gentamycin 64 μg/ml) | Visible growth readout (Clear/Foggy) (S. aureus; Gentamycin 128 μg/ml) | Visible growth readout (Clear/Foggy) (S. aureus; Gentamycin 256 μg/ml)
